Type in all cases: protein assay
Test [1] concerns the target T1, Alpha-1,2-mannosidase (BT_2199) (Bacteroides thetaiotaomicron) (UniProt Q8A5N9).
T1 sequence (whole entry): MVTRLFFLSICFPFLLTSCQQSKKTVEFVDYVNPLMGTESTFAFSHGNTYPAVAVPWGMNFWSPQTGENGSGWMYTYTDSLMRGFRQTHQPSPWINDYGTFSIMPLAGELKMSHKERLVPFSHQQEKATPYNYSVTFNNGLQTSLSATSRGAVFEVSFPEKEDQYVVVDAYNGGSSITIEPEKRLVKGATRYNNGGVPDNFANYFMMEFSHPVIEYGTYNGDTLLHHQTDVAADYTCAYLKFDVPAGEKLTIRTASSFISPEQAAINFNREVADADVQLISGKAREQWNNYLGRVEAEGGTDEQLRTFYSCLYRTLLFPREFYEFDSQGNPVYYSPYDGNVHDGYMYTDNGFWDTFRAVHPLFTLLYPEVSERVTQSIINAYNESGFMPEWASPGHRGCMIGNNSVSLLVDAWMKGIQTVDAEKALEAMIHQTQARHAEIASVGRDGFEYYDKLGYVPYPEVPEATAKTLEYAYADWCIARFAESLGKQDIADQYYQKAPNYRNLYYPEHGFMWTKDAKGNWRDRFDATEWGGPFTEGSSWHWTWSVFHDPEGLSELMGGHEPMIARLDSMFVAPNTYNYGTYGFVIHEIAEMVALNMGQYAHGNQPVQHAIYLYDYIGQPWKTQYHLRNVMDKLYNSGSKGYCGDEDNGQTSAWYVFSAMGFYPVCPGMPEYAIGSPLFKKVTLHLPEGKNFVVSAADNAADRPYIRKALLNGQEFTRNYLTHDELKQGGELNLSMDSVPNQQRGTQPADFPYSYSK
Nature of the test: Activity of Bacteroides thetaiotaomicron GH92 alpha-mannosidase 2199 assessed as recovery of enzyme activity at 1 mM in presence of 7 mM Zn(2+) ions and in presence of 5 mM EDTA in 100 mM pH 7 MOPS buffer relative to enzyme activity in presence of calcium.

For test [2], the target named is T1, Alpha-1,2-mannosidase (BT_2199) (Bacteroides thetaiotaomicron). Put plainly: Activity of Bacteroides thetaiotaomicron GH92 alpha-mannosidase 2199 assessed as recovery of enzyme activity at 1 mM in presence of 7 mM Be(2+) ions and in presence of 5 mM EGTA in 100 mM pH 7 MOPS buffer relative to enzyme activity in presence of calcium.
Test [3] has the same target. Put plainly: Activity of Bacteroides thetaiotaomicron GH92 alpha-mannosidase 2199 assessed as recovery of enzyme activity at 1 mM in presence of 7 mM V(3+) ions and in presence of 5 mM EGTA in 100 mM pH 7 MOPS buffer relative to enzyme activity in presence of calcium.
For test [4], the target named is T2, Alpha-1,2-mannosidase (BT_3990) (Bacteroides thetaiotaomicron) (UniProt Q8A0N1).
T2 sequence (whole entry): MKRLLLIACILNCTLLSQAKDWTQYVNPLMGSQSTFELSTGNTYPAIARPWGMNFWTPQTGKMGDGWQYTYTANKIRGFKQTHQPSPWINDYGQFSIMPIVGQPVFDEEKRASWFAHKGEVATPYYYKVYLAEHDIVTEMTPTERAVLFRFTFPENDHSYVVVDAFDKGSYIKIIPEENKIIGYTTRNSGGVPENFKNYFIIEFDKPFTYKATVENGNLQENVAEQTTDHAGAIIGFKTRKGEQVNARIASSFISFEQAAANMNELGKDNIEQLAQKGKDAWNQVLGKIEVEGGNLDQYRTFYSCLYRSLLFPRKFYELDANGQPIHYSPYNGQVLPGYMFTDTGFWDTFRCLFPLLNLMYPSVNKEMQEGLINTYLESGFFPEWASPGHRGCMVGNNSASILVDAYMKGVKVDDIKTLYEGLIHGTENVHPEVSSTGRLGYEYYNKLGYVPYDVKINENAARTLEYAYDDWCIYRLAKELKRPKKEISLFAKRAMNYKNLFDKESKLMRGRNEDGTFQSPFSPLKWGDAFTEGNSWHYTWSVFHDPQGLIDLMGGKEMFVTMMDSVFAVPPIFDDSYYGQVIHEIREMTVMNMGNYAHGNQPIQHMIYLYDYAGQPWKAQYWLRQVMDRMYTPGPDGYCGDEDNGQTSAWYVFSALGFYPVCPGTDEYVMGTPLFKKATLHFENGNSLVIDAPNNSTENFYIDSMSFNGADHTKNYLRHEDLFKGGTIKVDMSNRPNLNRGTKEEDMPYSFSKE
Nature of the test: Activity of Bacteroides thetaiotaomicron GH92 alpha-mannosidase 3990 assessed as recovery of enzyme activity at 1 mM in presence of 7 mM Sr(2+) ions and in presence of 5 mM EDTA in 100 mM pH 7 MOPS buffer relative to enzyme activity in presence of calcium.

Structures are written as SMILES.

In the case of `O=[N+]([O-])c1ccc(O[C@H]2O[C@H](CO)[C@@H](O)[C@H](O)[C@@H]2O)cc1`, the Activity in test [1] was 0%; in test [2] it was 0%; in test [3], 0%; in test [4] it was 14%.

The values are drawn from ChEMBL document CHEMBL1250451, “Mechanistic insights into a Ca2+-dependent family of alpha-mannosidases in a human gut symbiont” (Nat Chem Biol, 2010).
